Source: patent US9849186B2, “Triblock copolymer and use therefor” (priority 2012, dated 2017)

Tests used:
[1] = system: myeloperoxidase (MPO) activity; test: Carrageenan-induced arthritis model: MPO activity as marker of neutrophil infiltration; assay type: in vivo, mice; settings: 50 μl s.c. right hind paw; 5% carrageenan 18 hours later; measured 6 hours after carrageenan
Description: Five mice (n=5) were used in each of 9 groups (Control, RIG, nRIG, Saline@Carr, RIG@Carr, nRIG@Carr, 4-amino-TEMPO@Carr, RNP^N@Carr, nRIG+4-amino-TEMPO@Carr).
50 μl each of nitroxide radical-containing polyion complex micelles for forming an RIG gel (RIG; molar ratio r=1:1, pH 6, 60 mg/ml), nitroxide radical-free polyion complex micelles for forming an nRIG gel (nRIG; molar ratio r=1:1, pH 6, 60 mg/ml), saline, a low-molecular-weight nitroxide radical compound solution (4-aminoTEMPO; 5.45 mg/ml), a nitroxide radical-containing polymer micelle solution (RNP^N; 60 mg/ml), and a solution of low-molecular-weight 4-aminoTEMPO physically mixed with nitroxide radical-free polyion complex micelles (n-RIG+4-aminoTEMPO; molar ratio r=1:1, pH 6, 60 mg/ml) was then injected subcutaneously into the right hind paws of mice. 18 hours later, 50 μl of 5% carrageenan buffer was injected subcutaneously into the right hind paws of the mice in the Saline@Carr, RIG@Carr, nRIG@Carr, 4-amino-TEMPO@Carr, RNP^N@Carr, and nRIG+4-aminoTEMPO@Carr groups (n=5). Nothing was administered to the Control group (n=5). […] The collected tissue of the mouse right hind paws was then homogenized, and the amount of inflammatory cytokines (TNF-α and IL-1β) and myeloperoxidase (MPO) activity as a marker of neutrophil infiltration were measured with an ELISA kit in the supernatant collected by centrifugation.

[2] = Local retention of injectable gel, imaging by L-band electron spin resonance; settings: 70 μl s.c. into hind paw
Description: Three mice were used in each group. 70 μl of a solution of the nitroxide radical-containing polyion complex micelles used in Test 1 (PMNT-b-PEG-b-PMNT to PAA molar ratio r=1:1 (RIG). pH 6, 60 mg/ml) was injected subcutaneously into the left hind paws of three mice. […] Local retention of nitroxide radicals in the mouse paws was imaged by L-band electron spin resonance (ESR) using mice immediately after administration.

CC1(C)CC(N)CC(C)(C)N1[O] [4-aminoTEMPO, 4-amino-TEMPO]
suppression of MPO activity caused by carrageenan [1]: not significantly suppressed
time after administration at which ESR signal disappeared from mouse paws [2]: ≤ 30 min
